Source: patent US20260069539A1, “LIPIDOID COMPOUNDS AND RELATED COMPOSITIONS AND USES” (Poseida Therapeutics, Inc., priority 2023, published 2026)

Columns and labels:
liver cells [1] = experiment: In vivo LNP delivery of fLuciferase mRNA, bioluminescent imaging (BLI) at 4 hr; set-up: species or system BALB/C mice; details: for Mean Luciferase Flux: 0.5 mg/kg fLuc mRNA i.v., 4 hr
Procedure: Adult female BALB/C mice (n=3/group) were intravenously administered 0.5 mg/kg of 5′-CleanCap—fLuciferase mRNA (TriLink Biotech) formulated with the LNP compositions shown in Table 6. One group of mice was treated with vehicle (PBS, Thermo Fisher Scientific, USA) as a negative control.
The location and extent of luciferase expression in treated and control mice were determined at 4 hr for mRNA and 48 hr for DNA by bioluminescent imaging (BLI) of anesthetized mice using an IVIS Lumina in vivo imaging system (Perkin Elmer) according to the manufacturer's instructions. Briefly, mice were anesthetized using isoflurane in oxygen, and placed supine on a heated stage. Mice were then administered D-luciferin (Perkin-Elmer #122799) IP, and BLI was performed.
(§1) The location and extent of luciferase expression in treated and control mice were determined at 4 hr by bioluminescent imaging (BLI) of anesthetized mice using an IVIS Lumina in vivo imaging system (Perkin Elmer) according to the manufacturer's instructions. Briefly, mice were anesthetized using isoflurane in oxygen, and placed supine on a heated stage. Mice were then administered D-luciferin (Perkin-Elmer #122799) IP, and BLI was performed.
as §1
The location and extent of luciferase expression in treated and control mice were determined at 4 hr by bioluminescent imaging (BLI) of anesthetized mice using an IVIS Lumina in vivo imaging system (Perkin Elmer) according to the manufacturer's instructions.
Briefly, mice were anesthetized using isoflurane in oxygen, and placed supine on a heated stage. Mice were then administered D-luciferin (Perkin-Elmer #122799) IP, and BLI was performed.
as §1

[2] = Body weight change / body weight loss 24 hours post-administration of LNP; type: in vivo, BALB/C mice
Procedure: In addition, the body weight of mice treated with LNP compositions of the present disclosure prepared as described in Example 77 was assessed prior to intravenous administration and 24 hours post-administration and the body weights at baseline and post-treatment were compared.
In addition, the body weight of mice treated with LNP compositions of the present disclosure was assessed prior to intravenous administration and 24 hours post-administration and the body weights at baseline and post-treatment were compared.
Body weight loss (BWL) measurements were taken at 24 hrs post administration and luciferase expression was measured by whole body luminescence imaging (BLI) at 48 hours post-administration.
(§2) Blood was drawn from control and treated mice 4 hrs post-administration for cytokine analysis, body weight loss (BWL) measurements were taken at 24 hrs post administration and luciferase expression was measured by whole body luminescence imaging (BLI) at 48 hours post-administration.

liver cells [3] = experiment: In vivo LNP delivery of DNA encoding firefly luciferase, bioluminescent imaging (BLI) at 48 hr; set-up: species or system BALB/C mice; details: for Total Flux: Example 103, 0.5 mg/kg DNA intravenous, BLI at 48 hr; for Mean Luciferase Flux: DNA encoding firefly luciferase, 48 hr
Procedure: Adult BALB/C mice (n=3) were administered 0.5 mg/kg of DNA encoding firefly luciferase (Nature Technology Corp) formulated in a LNP composition listed in Table 4. One group of mice was treated with vehicle (PBS, Thermo Fisher Scientific, USA) as a negative control.
The location and extent of luciferase expression in treated and control mice were determined at 48 hr for DNA delivery by bioluminescent imaging (BLI) of anesthetized mice using an IVIS Lumina in vivo imaging system (Perkin Elmer) according to the manufacturer's instructions. Briefly, mice were anesthetized using isoflurane in oxygen, and placed supine on a heated stage. Mice were then administered D-luciferin (Perkin-Elmer #122799) IP, and BLI was performed.
The location and extent of luciferase expression in treated and control mice were determined at 48 hr for DNA by bioluminescent imaging (BLI) of anesthetized mice using an IVIS Lumina in vivo imaging system (Perkin Elmer) according to the manufacturer's instructions. Briefly, mice were anesthetized using isoflurane in oxygen, and placed supine on a heated stage. Mice were then administered D-luciferin (Perkin-Elmer #122799) IP, and BLI was performed. […]
Body weight loss (BWL) measurements were taken at 24 hrs post administration and luciferase expression was measured by whole body luminescence imaging (BLI) at 48 hours post-administration. […]
Luciferase expression was measured by whole body luminescence imaging (BLI) at 48 hours post-administration.

[4] = tested on: proinflammatory cytokines IL-6, INF-G, TNF-α, MCP-1, MIP-1a/MIP-1b; experiment: Serum proinflammatory cytokine levels (ELISA) 4 hours after LNP administration; type: in vivo, BALB/C mice; details: 0.5 mg/kg fLuc mRNA i.v., serum at 4 hours
Procedure: The levels of five proinflammatory cytokines present in serum were evaluated at 4 hours after LNP administration for each of the tested concentrations. Briefly, serum samples were prepared as described for liver enzyme analysis and the serum concentration of each cytokine was determined using commercially available ELISA kits (e.g., R&D Systems Quantikine ELISA kits). The levels of the proinflammatory cytokines interleukin-6 (IL-6), interferon gamma (INF-G), tumor necrosis factor alpha (TNF-α), monocyte chemoattractant protein-1 (MCP-1), macrophage inflammatory protein-1 alpha (MIP-1a) in mice treated with LNPs of the present disclosure compared to vehicle treated mice at 4 hours are shown in Table 18.
The levels of five proinflammatory cytokines present in serum were evaluated at 4 hours after LNP administration as described in Example 81. The levels of the proinflammatory cytokines interleukin-6 (IL-6), interferon gamma (INF-G), tumor necrosis factor alpha (TNF-a), monocyte chemoattractant protein-1 (MCP-1), macrophage inflammatory protein-1 beta (MIP-1b) in mice treated with LNPs of the present disclosure are shown in Table 35.
The levels of five proinflammatory cytokines present in serum were evaluated at 4 hours after LNP administration as described in Example 81. The levels of the proinflammatory cytokines interleukin-6 (IL-6), interferon gamma (INF-G), tumor necrosis factor alpha (TNF-a), monocyte chemoattractant protein-1 (MCP-1), macrophage inflammatory protein-1 beta (MIP-1b) in mice treated with LNPs of the present disclosure are shown in Table 38 and Table 39.
The levels of five proinflammatory cytokines present in serum were evaluated at 4 hours after LNP administration as described in Example 81. The levels of the proinflammatory cytokines interleukin-6 (IL-6), interferon gamma (INF-G), tumor necrosis factor alpha (TNF-α), monocyte chemoattractant protein-1 (MCP-1), macrophage inflammatory protein-1 beta (MIP-1b) in mice treated with LNPs of the present disclosure are shown in Table 44.
as §2

[5] = Table 15 experiment, LNP with 40.75 % moles of the compound (Lipid:RNA 80)
[6] = Table 15 experiment, LNP with 50 % moles of the compound (Lipid:RNA 80)
[7] = LNP with 40.75 % moles of the compound, fLuc mRNA 0.5 mg/kg i.v.
[8] = LNP with 50 % moles of the compound, fLuc mRNA 0.5 mg/kg i.v.
[9] = LNP with 40.8 (40.75) % moles Compound No. 40
[10] = LNP with 50 % moles Compound No. 40

Compound: CCCCCC(=O)OCC1CCC(COC(=O)C(CCCN(C)CCCC(C(=O)OCC2CCC(COC(=O)CCCCC)CC2)C(=O)OCC2CCC(COC(=O)CCCCC)CC2)C(=O)OCC2CCC(COC(=O)CCCCC)CC2)CC1 (centres unmarked) [COMPOUND NO. 41]
- Mean Luciferase Flux (liver cells [1]; [5]): 3.79E+09 p/s
- Mean Luciferase Flux (liver cells [1]; [6]): 5.26E+09 p/s
- % body weight change [2, 7]: −1.8%
- % body weight change [2, 8]: −2.6%

Compound: CCCCC[C@H]1CC[C@H](C(=O)OCC(COC(=O)CCCCCN(CCO)CCCCCC(=O)COC(COC(=O)[C@H]2CC[C@H](CCCCC)CC2)COC(=O)[C@H]2CC[C@H](CCCCC)CC2)COC(=O)[C@H]2CC[C@H](CCCCC)CC2)CC1 [COMPOUND NO. 36]
- Total Flux (liver cells [3]; LNP with 10% DOPC): 7.52E+07 p/s
- Total Flux (liver cells [3]; LNP with 10% DSPC): 1.23E+08 p/s
- Mean Luciferase Flux (liver cells [3]; LNP with 43.17 % moles of the compound (DOPC 11.96/Chol 43.17/PEG-DMG 1.7, Lipid:DNA 80)): 7.99E+07 p/s
- Mean Luciferase Flux (liver cells [3]; LNP with 50 % moles of the compound (DOPC 10/Chol 38.5/PEG-DMG 1.5, Lipid:DNA 80)): 1.82E+08 p/s
- RNA delivery potency (liver cells [1]; 0.5 mg/kg fLuciferase mRNA in LNP, BLI at 4 hr): RNA delivery potency increases with increasing number of cyclohexyl-substituted tails
- Total Flux (liver cells [1]; Example 104, experiment of Table 64, 0.5 mg/kg fLuciferase mRNA intravenous, BLI at 4 hr): 3.25E+11 p/s
- Mean Luciferase Flux (liver cells [1]; Table 14 experiment, LNP with 43.17 % moles of the compound (Lipid:RNA 80)): 1.31E+11 p/s
- Mean Luciferase Flux (liver cells [1]; Table 14 experiment, LNP with 50 % moles of the compound (Lipid:RNA 80)): 1.19E+11 p/s
- % body weight change ([2]; DNA LNP with 43.17 % moles of the compound): −4.9%
- % body weight change ([2]; DNA LNP with 50 % moles of the compound): −6.7%

Compound: CC(C)CCCC1CCC(COC(=O)C(CCCN(CCO)CCCC(C(=O)OCC2CCC(CCCC(C)C)CC2)C(=O)OCC2CCC(CCCC(C)C)CC2)C(=O)OCC2CCC(CCCC(C)C)CC2)CC1 (centres unmarked) [COMPOUND NO. 42]
- Mean Luciferase Flux (liver cells [1]; [5]): 1.23E+09 p/s
- Mean Luciferase Flux (liver cells [1]; [6]): 8.27E+09 p/s
- % body weight change [2, 7]: −2.3%
- % body weight change [2, 8]: −4.0%

Compound: CCCCCC(=O)OCC1CCC(COC(=O)C(CCCN(CCO)CCCC(C(=O)OCC2CCC(COC(=O)CCCCC)CC2)C(=O)OCC2CCC(COC(=O)CCCCC)CC2)C(=O)OCC2CCC(COC(=O)CCCCC)CC2)CC1 (centres unmarked) [COMPOUND NO. 40]
- Mean Luciferase Flux (liver cells [1]; [5]): 2.20E+10 p/s
- Mean Luciferase Flux (liver cells [1]; [6]): 1.02E+11 p/s
- IL-6 cytokine fold changes in treated mice relative to untreated mice [4, 9]: 0.4 fold
- INF-G cytokine fold changes in treated mice relative to untreated mice [4, 9]: 1.5 fold
- MCP-1 cytokine fold changes in treated mice relative to untreated mice [4, 9]: 1.6 fold
- MIP-1a cytokine fold changes in treated mice relative to untreated mice [4, 9]: 1.4 fold
- TNF-a cytokine fold changes in treated mice relative to untreated mice [4, 9]: 1.0 fold
- IL-6 cytokine fold changes in treated mice relative to untreated mice [4, 10]: 0.6 fold
- INF-G cytokine fold changes in treated mice relative to untreated mice [4, 10]: 2.0 fold
- MCP-1 cytokine fold changes in treated mice relative to untreated mice [4, 10]: 5.2 fold
- MIP-1a cytokine fold changes in treated mice relative to untreated mice [4, 10]: 3.8 fold
- TNF-a cytokine fold changes in treated mice relative to untreated mice [4, 10]: 1.1 fold
- % body weight change [2, 7]: −5.5%
- % body weight change [2, 8]: −2.0%
